Consider 22 compounds from US7973061B2, “Anaplastic lymphoma kinase modulators and methods of use” (Exelixis, Inc., priority 2004, dated 2011).

Molecules are shown by their SMILES.

The target of the assay is T1, ALK (baculovirus expressed human ALK kinase domain F1098-K1410) (Homo sapiens, UniProt Q9UM73).
T1 construct: human ALK kinase domain F1098-K1410; made in house
The assay can be described thus: biochemical. The settings on record: 1 μM ATP, 4 μM poly-AEKY, 12 nM ALK, 2 hours at ambient temperature; read-out: ALK IC50. The gist of the method: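 Baculovirus-expressed human ALK kinase domain (F1098-K1410) was run in a luciferase-coupled chemiluminescent format, with ATP near its KM. After 2 h at ambient temperature, remaining ATP was read by luciferase-luciferin luminescence. IC50 came from 10-point dose-response curves fitted to a four-parameter equation with Hill slope.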

T1 sequence (Q9UM73 1098-1410): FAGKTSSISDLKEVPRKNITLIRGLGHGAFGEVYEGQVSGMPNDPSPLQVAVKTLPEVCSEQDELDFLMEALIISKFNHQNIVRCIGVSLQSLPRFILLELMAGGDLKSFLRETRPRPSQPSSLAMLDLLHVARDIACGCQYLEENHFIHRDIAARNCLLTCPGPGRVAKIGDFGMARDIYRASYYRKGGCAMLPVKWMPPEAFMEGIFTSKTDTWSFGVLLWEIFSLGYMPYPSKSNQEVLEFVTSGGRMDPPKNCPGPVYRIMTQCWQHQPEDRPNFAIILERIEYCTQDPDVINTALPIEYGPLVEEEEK

As to `COc1ccccc1CNC(=O)c1csc(CNC(=O)COc2ccc(I)cc2)n1` [Entry 82, 2-[({[(4-iodophenyl)oxy]acetyl}amino)methyl]-N-{[2-(methyloxy)phenyl]methyl}-1,3-thiazole-4-carboxamide], the IC50 lay within 50 to 500 nM.
In the case of `O=C(COc1ccc(OC(F)(F)F)cc1)NCc1nc(C(=O)NCCc2ccc(Cl)cc2)cs1` [Entry 83, N-[2-(4-chlorophenyl)ethyl]-2-({[({4-[(trifluoromethyl)oxy]phenyl}oxy)acetyl]amino}methyl)-1,3-thiazole-4-carboxamide] it was 50 to 500 nM.
The result for `O=C(COc1ccc(OC(F)(F)F)cc1)NCc1nc(C(=O)NC2CCN(Cc3ccccc3)CC2)cs1` [Entry 84, N-[1-(phenylmethyl)piperidin-4-yl]-2-({[({4-[(trifluoromethyl)oxy]phenyl}oxy)acetyl]amino}methyl)-1,3-thiazole-4-carboxamide] reads 50 to 500 nM; that for `CC(NC(=O)c1csc(CNC(=O)COc2ccc(OC(F)(F)F)cc2)n1)c1cccc2ccccc12` (stereo not shown) [Entry 85, N-(1-naphthalen-1-ylethyl)-2-({[({4-[(trifluoromethyl)oxy]phenyl}oxy)acetyl]amino}methyl)-1,3-thiazole-4-carboxamide], 50 to 500 nM; that for `CC(NC(=O)c1csc(CNC(=O)COc2ccc(OC(F)(F)F)cc2)n1)c1ccc(F)cc1` (stereo not shown) [Entry 86, N-[1-(4-fluorophenyl)ethyl]-2-({[({4-[(trifluoromethyl)oxy]phenyl}oxy)acetyl]amino}methyl)-1,3-thiazole-4-carboxamide], 50 to 500 nM.
The result for `CC1CCCCC1NC(=O)c1csc(CNC(=O)COc2ccc(OC(F)(F)F)cc2)n1` (stereo not shown) [Entry 87, N-(2-methylcyclohexyl)-2-({[({4-[(trifluoromethyl)oxy]phenyl}oxy)acetyl]amino}methyl)-1,3-thiazole-4-carboxamide] reads 50 to 500 nM; that for `C[C@@H]1[C@H]2C[C@@H](C[C@H]1NC(=O)c1csc(CNC(=O)COc3ccc(OC(F)(F)F)cc3)n1)C2(C)C` [Entry 88, 2-({[({4-[(trifluoromethyl)oxy]phenyl}oxy)acetyl]amino}methyl)-N-[(1R,2R,3R,5S)-2,6,6-trimethylbicyclo[3.1.1]hept-3-yl]-1,3-thiazole-4-carboxamide], 50 to 500 nM.
As to `C[C@@H]1[C@@H](NC(=O)c2coc(CNC(=O)COc3ccc(OC(F)(F)F)cc3)n2)C[C@H]2C[C@@H]1C2(C)C` [Entry 89, 2-({[({4-[(trifluoromethyl)oxy]phenyl}oxy)acetyl]amino}methyl)-N-[(1S,2S,3S,5R)-2,6,6-trimethylbicyclo[3.1.1]hept-3-yl]-1,3-oxazole-4-carboxamide], the IC50 fell in the range of 50 to 500 nM.
The result for `O=C(COc1ccc(OC(F)(F)F)cc1)NCc1nc(C(=O)NCCc2ccc(Br)cc2)cs1` [Entry 90, N-[2-(4-bromophenyl)ethyl]-2-({[({4-[(trifluoromethyl)oxy]phenyl}oxy)acetyl]amino}methyl)-1,3-thiazole-4-carboxamide] reads 50 to 500 nM.
The result for `O=C(COc1ccc(OC(F)(F)F)cc1)NCc1nc(C(=O)N[C@@H](Cc2ccccc2)C(=O)N2CCCC2)cs1` [Entry 91, N-[(1S)-2-oxo-1-(phenylmethyl)-2-pyrrolidin-1-ylethyl]-2-({[({4-[(trifluoromethyl)oxy]phenyl}oxy)acetyl]amino}methyl)-1,3-thiazole-4-carboxamide] reads 50 to 500 nM.
With `NS(=O)(=O)c1ccc(CCNC(=O)c2coc(CNC(=O)COc3ccc(OC(F)(F)F)cc3)n2)cc1` [Entry 92, N-{2-[4-(aminosulfonyl)phenyl]ethyl}-2-({[({4-[(trifluoromethyl)oxy]phenyl}oxy)acetyl]amino}methyl)-1,3-oxazole-4-carboxamide], the IC50 was in the range of 50 to 500 nM.
Turning to `O=C(COc1ccc(OC(F)(F)F)cc1)NCc1nc(C(=O)NCCSCc2c(Cl)cccc2Cl)cs1` [Entry 93, N-(2-{[(2,6-dichlorophenyl)methyl]thio}ethyl)-2-({[({4-[(trifluoromethyl)oxy]phenyl}oxy)acetyl]amino}methyl)-1,3-thiazole-4-carboxamide], the IC50 fell in the range of 50 to 500 nM.
In the case of `CC(C)CNC(=O)c1csc(CNC(=O)COc2ccc(OC(F)(F)F)cc2)n1` [Entry 94, N-(2-methylpropyl)-2-({[({4-[(trifluoromethyl)oxy]phenyl}oxy)acetyl]amino}methyl)-1,3-thiazole-4-carboxamide] it was 50 to 500 nM; in that of `C[C@H](NC(=O)c1csc(CNC(=O)COc2ccc(OC(F)(F)F)cc2)n1)C1CCCCC1` [Entry 95, N-[(1S)-1-cyclohexylethyl]-2-({[({4-[(trifluoromethyl)oxy]phenyl}oxy)acetyl]amino}methyl)-1,3-thiazole-4-carboxamide], 50 to 500 nM.
In the case of `O=C(COc1ccc(OC(F)(F)F)cc1)NCc1nc(C(=O)N2CCc3c([nH]c4ccccc34)C2)cs1` [Entry 96, N-{[4-(1,3,4,9-tetrahydro-2H-beta-carbolin-2-ylcarbonyl)-1,3-thiazol-2-yl]methyl}-2-({4-[(trifluoromethyl)oxy]phenyl}oxy)acetamide] it was 50 to 500 nM.
On to `O=C(COc1ccc(OC(F)(F)F)cc1)NCc1nc(C(=O)NCc2cc(C(F)(F)F)ccc2Cl)cs1` [Entry 97, N-{[2-chloro-5-(trifluoromethyl)phenyl]methyl}-2-({[({4-[(trifluoromethyl)oxy]phenyl}oxy)acetyl]amino}methyl)-1,3-thiazole-4-carboxamide], for which the IC50 fell in the range of 50 to 500 nM.
In the case of `Cc1ccccc1CNC(=O)c1csc(CNC(=O)COc2ccc(OC(F)(F)F)cc2)n1` [Entry 98, N-[(2-methylphenyl)methyl]-2-({[({4-[(trifluoromethyl)oxy]phenyl}oxy)acetyl]amino}methyl)-1,3-thiazole-4-carboxamide] it was 50 to 500 nM; in that of `CC(NC(=O)c1coc(CNC(=O)COc2ccc(OC(F)(F)F)cc2)n1)c1cccc2ccccc12` (stereo not shown) [Entry 99, N-(1-naphthalen-1-ylethyl)-2-({[({4-[(trifluoromethyl)oxy]phenyl}oxy)acetyl]amino}methyl)-1,3-oxazole-4-carboxamide], 50 to 500 nM.
The result for `CCCCC(CC)COCCCNC(=O)c1csc(CNC(=O)COc2ccc(OC(F)(F)F)cc2)n1` (stereo not shown) [Entry 100, N-{3-[(2-ethylhexyl)oxy]propyl}-2-({[({4-[(trifluoromethyl)oxy]phenyl}oxy)acetyl]amino}methyl)-1,3-thiazole-4-carboxamide] reads 50 to 500 nM; that for `CCc1ccc(NC(=O)NCc2nc(C(=O)NCCc3ccccc3F)cs2)cc1` [Entry 101, 2-[({[(4-ethylphenyl)amino]carbonyl}amino)methyl]-N-[2-(2-fluorophenyl)ethyl]-1,3-thiazole-4-carboxamide], 50 to 500 nM.
In the case of `C[C@H](NC(=O)c1csc(CNC(=O)COc2ccc(OC(F)(F)F)cc2)n1)C(C)(C)C` [Entry 102, 2-({[({4-[(trifluoromethyl)oxy]phenyl}oxy)acetyl]amino}methyl)-N-[(1S)-1,2,2-trimethylpropyl]-1,3-thiazole-4-carboxamide] it was 50 to 500 nM; in that of `O=C(COc1ccc(OC(F)(F)F)cc1)NCc1nc(C(=O)N[C@H]2CCC[C@@H]2OCc2ccccc2)cs1` [Entry 103, N-{(1S,2S)-2-[(phenylmethyl)oxy]cyclopentyl}-2-({[({4-[(trifluoromethyl)oxy]phenyl}oxy)acetyl]amino}methyl)-1,3-thiazole-4-carboxamide], 50 to 500 nM.

As a reminder, the IC50 is the concentration that gives 50% inhibition.
